In brackets after ≈: the same amount, converted by molar mass.
Experiments:
Staphylococcus aureus = assay: In vitro antimicrobial activity against Staphylococcus aureus X1; type: functional
Streptococcus pneumoniae = assay: In vitro antimicrobial activity against Streptococcus pneumoniae; type: functional
Haemophilus influenzae = assay: In vitro antimicrobial activity against Haemophilus influenzae.; type: functional
Enterococcus faecium = assay: In vitro antimicrobial activity against Streptococcus faecium X66; type: functional, streptococcus fae-cium
[1] = tested on: Staphylococcus epidermidis; assay: In vitro antimicrobial activity against Staphylococcus epidermidis EPI1; type: functional
Streptococcus pyogenes = assay: In vitro antimicrobial activity against Streptococcus pyogenes C203; type: functional

| SMILES | MIC (Staphylococcus aureus) [µg/mL] | MIC (Streptococcus pneumoniae) [µg/mL] | MIC (Haemophilus influenzae) [µg/mL] | MIC (Enterococcus faecium) [µg/mL] | MIC [1] [µg/mL] | MIC (Streptococcus pyogenes) [µg/mL] |
| --- | --- | --- | --- | --- | --- | --- |
| CC[C@H]1OC(=O)C[C@@H](O)[C@H](C)[C@@H](O[C@@H]2O[C@H](C)[C@@H](O[C@H]3C[C@@](C)(O)[C@@H](O)[C@H](C)O3)[C@H](N(C)C)[C@H]2O)[C@@H](CCO)C[C@@H](C)C(=O)/C=C/C(C)=C/[C@@H]1CO | > 128 | 64 (≈ 86 µM) | > 128 | > 128 | 128 (≈ 172 µM) | 64 (≈ 86 µM) |
| CC[C@H]1OC(=O)C[C@@H](O)[C@H](C)[C@@H](O[C@@H]2O[C@H](C)[C@@H](O[C@H]3C[C@@](C)(O)[C@@H](O)[C@H](C)O3)[C@H](N(C)C)[C@H]2O)[C@@H](CCO)C[C@@H](C)C(=O)/C=C/C(C)=C/[C@@H]1C | 64 (≈ 87.9 µM) | 64 (≈ 87.9 µM) | > 128 | 64 (≈ 87.9 µM) | 32 (≈ 44 µM) | 64 (≈ 87.9 µM) |
| CC[C@H]1OC(=O)C[C@@H](O)[C@H](C)[C@@H](O[C@@H]2O[C@H](C)[C@@H](O[C@H]3C[C@@](C)(O)[C@@H](O)[C@H](C)O3)[C@H](N(C)C)[C@H]2O)[C@@H](CCI)C[C@@H](C)C(=O)/C=C/C(C)=C/[C@@H]1CO[C@@H]1O[C@H](C)[C@@H](O)[C@@H](O)[C@H]1OC | 2 (≈ 1.97 µM) | 16 (≈ 15.8 µM) | 128 (≈ 126 µM) | 128 (≈ 126 µM) | 2 (≈ 1.97 µM) | 4 (≈ 3.94 µM) |
| CC[C@H]1OC(=O)C[C@@H](O)[C@H](C)[C@@H](O[C@@H]2O[C@H](C)[C@@H](O)[C@H](N(C)C)[C@H]2O)[C@@H](CCOc2ccc(OC)cc2)C[C@@H](C)C(=O)/C=C/C(C)=C/[C@@H]1CO[C@@H]1O[C@H](C)[C@@H](O)[C@@H](OC)[C@H]1OC | 0.25 (≈ 0.284 µM) | 1 (≈ 1.14 µM) | – | 4 (≈ 4.55 µM) | 0.25 (≈ 0.284 µM) | 1 (≈ 1.14 µM) |
| CC[C@H]1C[C@@H](C)C(=O)/C=C/C(C)=C/[C@H](CO[C@@H]2O[C@H](C)[C@@H](O)[C@@H](O)[C@H]2OC)[C@@H](CC)OC(=O)C[C@@H](O)[C@H](C)[C@H]1O[C@@H]1O[C@H](C)[C@@H](O)[C@H](N(C)C)[C@H]1O | 0.25 (≈ 0.336 µM) | 4 (≈ 5.38 µM) | – | 8 (≈ 10.8 µM) | 1.2 (≈ 1.61 µM) | 0.5 (≈ 0.672 µM) |

Continued by falling MIC (Staphylococcus aureus), values first:

| MIC (Staphylococcus aureus) [µg/mL] | MIC (Streptococcus pneumoniae) [µg/mL] | MIC (Haemophilus influenzae) [µg/mL] | MIC (Enterococcus faecium) [µg/mL] | MIC [1] [µg/mL] | MIC (Streptococcus pyogenes) [µg/mL] | SMILES |
| --- | --- | --- | --- | --- | --- | --- |
| 1 (≈ 0.978 µM) | 16 (≈ 15.7 µM) | > 128 | 128 (≈ 125 µM) | 1 (≈ 0.978 µM) | 1 (≈ 0.978 µM) | CC[C@H]1OC(=O)C[C@@H](O)[C@H](C)[C@@H](O[C@@H]2O[C@H](C)[C@@H](O[C@H]3C[C@@](C)(O)[C@@H](O)[C@H](C)O3)[C@H](N(C)C)[C@H]2O)[C@@H](CCOc2ccc(C=O)cc2)C[C@@H](C)C(=O)/C=C/C(C)=C/[C@@H]1CO[C@@H]1O[C@H](C)[C@@H](O)[C@@H](OC)[C@H]1OC |
| 0.5 (≈ 0.488 µM) | 8 (≈ 7.81 µM) | 128 (≈ 125 µM) | 128 (≈ 125 µM) | 2 (≈ 1.95 µM) | 1 (≈ 0.976 µM) | CC[C@H]1OC(=O)C[C@@H](O)[C@H](C)[C@@H](O[C@@H]2O[C@H](C)[C@@H](O[C@H]3C[C@@](C)(O)[C@@H](O)[C@H](C)O3)[C@H](N(C)C)[C@H]2O)[C@@H](CCOc2ccc(OC)cc2)C[C@@H](C)C(=O)/C=C/C(C)=C/[C@@H]1CO[C@@H]1O[C@H](C)[C@@H](O)[C@@H](OC)[C@H]1OC |
| 0.5 (≈ 0.56 µM) | 1 (≈ 1.12 µM) | – | 4 (≈ 4.48 µM) | 0.5 (≈ 0.56 µM) | 0.25 (≈ 0.28 µM) | CC[C@H]1OC(=O)C[C@@H](O)[C@H](C)[C@@H](O[C@@H]2O[C@H](C)[C@@H](O)[C@H](N(C)C)[C@H]2O)[C@@H](CCOc2cccc(N(C)C)c2)C[C@@H](C)C(=O)/C=C/C(C)=C/[C@@H]1CO[C@@H]1O[C@H](C)[C@@H](O)[C@@H](OC)[C@H]1OC |
| 0.25 (≈ 0.285 µM) | 0.25 (≈ 0.285 µM) | – | 8 (≈ 9.11 µM) | 0.25 (≈ 0.285 µM) | 1 (≈ 1.14 µM) | CC[C@H]1OC(=O)C[C@@H](O)[C@H](C)[C@@H](O[C@@H]2O[C@H](C)[C@@H](O)[C@H](N(C)C)[C@H]2O)[C@@H](CCOCCc2ccccc2)C[C@@H](C)C(=O)/C=C/C(C)=C/[C@@H]1CO[C@@H]1O[C@H](C)[C@@H](O)[C@@H](OC)[C@H]1OC |
